Source: patent publication US9796733B2, “Imidazo-pyrazine derivatives useful as soluble guanylate cyclase activators” (Merck Sharp & Dohme Corp., priority 2014, dated 2017)

Columns and labels:
sGC α1/β1 heterodimer = molecular target: T1, sGC α1/β1 heterodimer (Homo sapiens, UniProt Q02108+Q02153); experiment: Cell-based sGC functional assay (CASA assay): cGMP generation in CHO-K1/sGC cells, HTRF detection; conditions: for Emax: CHO-K1, percent activation relative to standard Compound A in CHO-K1/sGC cells, read-out: % Act.; for EC50: inflection point (IP) of cGMP generation in CHO-K1/sGC cells, 4P fit, activity expressed as percentage of Compound A
T1 construct: expressed in transfected cells; host or cells: CHO-K1 (clone #7, CHO-K1/sGC)
T1 sequence (Q02108 1-690): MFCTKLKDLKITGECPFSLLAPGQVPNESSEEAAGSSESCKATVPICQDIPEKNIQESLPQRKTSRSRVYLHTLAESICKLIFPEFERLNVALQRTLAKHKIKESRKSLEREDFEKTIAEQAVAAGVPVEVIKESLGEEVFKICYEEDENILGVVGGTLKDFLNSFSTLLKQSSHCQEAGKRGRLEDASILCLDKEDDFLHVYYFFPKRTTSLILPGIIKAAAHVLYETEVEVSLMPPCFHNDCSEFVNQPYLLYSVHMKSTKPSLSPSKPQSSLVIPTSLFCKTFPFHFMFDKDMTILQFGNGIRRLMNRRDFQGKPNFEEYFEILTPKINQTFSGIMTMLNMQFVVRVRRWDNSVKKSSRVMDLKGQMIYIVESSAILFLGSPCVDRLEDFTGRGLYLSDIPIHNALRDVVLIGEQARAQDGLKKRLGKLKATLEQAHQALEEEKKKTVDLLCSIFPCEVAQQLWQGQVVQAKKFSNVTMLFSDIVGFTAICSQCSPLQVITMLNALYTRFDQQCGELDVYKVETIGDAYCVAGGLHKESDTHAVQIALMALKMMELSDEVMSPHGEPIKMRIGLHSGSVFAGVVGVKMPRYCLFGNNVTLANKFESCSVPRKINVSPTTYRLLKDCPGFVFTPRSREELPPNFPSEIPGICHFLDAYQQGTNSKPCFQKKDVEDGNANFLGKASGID
T1 sequence (Q02153 1-619): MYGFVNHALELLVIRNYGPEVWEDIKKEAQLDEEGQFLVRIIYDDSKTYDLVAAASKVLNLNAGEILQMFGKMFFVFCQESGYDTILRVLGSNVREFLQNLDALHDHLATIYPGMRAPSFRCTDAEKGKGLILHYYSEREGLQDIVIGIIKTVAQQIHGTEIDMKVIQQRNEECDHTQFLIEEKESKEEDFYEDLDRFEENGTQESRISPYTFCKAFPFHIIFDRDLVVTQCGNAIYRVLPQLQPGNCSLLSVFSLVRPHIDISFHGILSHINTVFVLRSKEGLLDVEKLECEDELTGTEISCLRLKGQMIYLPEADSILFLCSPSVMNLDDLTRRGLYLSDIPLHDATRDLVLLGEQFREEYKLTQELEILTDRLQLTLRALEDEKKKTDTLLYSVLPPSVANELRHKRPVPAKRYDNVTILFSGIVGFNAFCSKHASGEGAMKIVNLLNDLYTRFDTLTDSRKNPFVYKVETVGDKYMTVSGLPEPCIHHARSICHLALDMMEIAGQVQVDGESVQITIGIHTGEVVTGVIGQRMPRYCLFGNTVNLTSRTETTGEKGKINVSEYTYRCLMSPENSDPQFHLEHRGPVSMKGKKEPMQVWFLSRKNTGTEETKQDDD
How it was run: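 cGMP was quantified by HTRF after 1 hr, 37° C exposure of thawed CHO-K1 cells expressing sGC α1/β1 to compound, with or without 1 μM DETA-NO. IBMX (0.5 mM) blocked cGMP breakdown, and DMSO was 2.5% final. Percent of standard Compound A's maximal cGMP was fitted (4P) for inflection point.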

[1] = system: Spontaneously hypertensive rats (SHR); experiment: Acute efficacy in spontaneously hypertensive rats (SHR): telemetry blood pressure lowering after a single oral dose; type: in vivo, rat
Excerpt: Acute Efficacy in Spontaneously Hypertensive Rats (SHR)
Spontaneously hypertensive rats (SHR, male, Charles River) were implanted with DSI TA11PA-C40 telemetry device (Data Sciences, Inc., St. Paul, Minn.) under isoflurane or ketamine/metomidine anesthesia. The telemetry unit catheter was inserted into the descending aorta via the femoral artery and the telemetry device was implanted subcutaneously in the left flank area. Animals were allowed to recover from surgery for 14 days before the start of any studies. Blood pressure, heart rate, and activity signals from conscious, freely moving rats were recorded continuously for 30 seconds every 10 minutes. On the day prior to administration of compound, a single oral dose of vehicle (10% transcutol/20% Cremophor/70% water) was administered to all animals to establish baseline control data. The blood pressure lowering efficacy of compound (PO) or vehicle was evaluated following a single oral gavage. Data were collected as hourly averages, and changes in blood pressure were calculated by subtracting control baseline data on an hourly basis. Animals were maintained on normal diet with a 12 hour light-dark cycle.
Maximum peak decreases of systolic blood pressure (SBP) in SHR at a particular P.O. dose (mpk milligrams per kilogram) for the following representative compounds are provided. Category A=SBP in SHRs<20 mmHg; Category B=SBP in SHRs 20-40 mmHg; Category C=SBP in SHRs>40 mmHg

SMILES | Emax (sGC α1/β1 heterodimer) | EC50 (sGC α1/β1 heterodimer) | Maximum peak decrease of systolic blood pressure (SBP) in SHR, Cat. ([1]; P.O. 3.0 mpk) | Maximum peak decrease of systolic blood pressure (SBP) in SHR, Cat. ([1]; P.O. 1.0 mpk) | Maximum peak decrease of systolic blood pressure (SBP) in SHR, Cat. ([1]; P.O. 0.3 mpk) | Maximum peak decrease of systolic blood pressure (SBP) in SHR, Cat. ([1]; P.O. 2.0 mpk)
Nc1nc(-c2cn3ccnc3c(CCCC(F)(F)F)n2)nc2c1C(c1cncc(F)c1)(C1CC1)C(=O)N2 (stereo not drawn) [Example 356B, 4-amino-5-cyclopropyl-5-(5-fluoropyridin-3-yl)-2-(8-(4,4,4-trifluorobutyl)imidazo[1,2-a]pyrazin-6-yl)-5H-pyrrolo[2,3-d]pyrimidin-6(7H)-one] | 108% | 0.487 µM | A (Category A=SBP in SHRs<20 mmHg) |  |  | 
CNc1nc(-c2cn3ccnc3c(CCC(F)(F)C(F)(F)F)n2)nc2c1C(C)(c1ccc(F)cn1)C(=O)N2 (stereo not drawn) [Example 290B, 5-(5-fluoropyridin-2-yl)-5-methyl-4-(methylamino)-2-(8-(3,3,4,4,4-pentafluorobutyl)imidazo[1,2-a]pyrazin-6-yl)-5H-pyrrolo[2,3-d]pyrimidin-6(7H)-one] | 106% | 0.28 µM | B (Category B=SBP in SHRs 20-40 mmHg) |  |  | 
CCC1(c2ccc(Cl)c(F)c2)C(=O)Nc2nc(-c3cn4ccnc4c(CCC(F)(F)F)n3)nc(N)c21 (stereo not drawn) [Example 199A, 4-amino-5-(4-chloro-3-fluorophenyl)-5-ethyl-2-(8-(3,3,3-trifluoropropyl)imidazo[1,2-a]pyrazin-6-yl)-5H-pyrrolo[2,3-d]pyrimidin-6(7H)-one] | 101% | 0.544 µM | B (Category B=SBP in SHRs 20-40 mmHg) |  |  | 
Nc1nc(-c2cn3ccnc3c(CCC(F)(F)C(F)(F)F)n2)nc2c1C(c1ncc(Cl)cn1)(C1CC1)C(=O)N2 (stereo not drawn) [Example 349A, 4-amino-5-(5-chloropyrimidin-2-yl)-5-cyclopropyl-2-(8-(3,3,4,4,4-pentafluorobutyl)imidazo[1,2-a]pyrazin-6-yl)-5H-pyrrolo[2,3-d]pyrimidin-6(7H)-one] | 107% | 0.213 µM |  |  |  | B (Category B=SBP in SHRs 20-40 mmHg)
CCC1(c2ccc(F)cc2)C(=O)Nc2nc(-c3cn4ccnc4c(CCCC(F)(F)F)n3)nc(N)c21 (stereo not drawn) [Example 215A, 4-amino-5-ethyl-5-(4-fluorophenyl)-2-(8-(4,4,4-trifluorobutyl)imidazo[1,2-a]pyrazin-6-yl)-5H-pyrrolo[2,3-d]pyrimidin-6(7H)-one] | 107% | 0.351 µM |  |  | B (Category B=SBP in SHRs 20-40 mmHg) | 
CC1(c2ccc(Cl)c(Cl)c2)C(=O)Nc2nc(-c3cn4ccnc4c(CCC(F)(F)F)n3)nc(N)c21 (stereo not drawn) [Example 186A, 4-amino-5-(3,4-dichlorophenyl)-5-methyl-2-(8-(3,3,3-trifluoropropyl)imidazo[1,2-a]pyrazin-6-yl)-5H-pyrrolo[2,3-d]pyrimidin-6(7H)-one] | 129% | 0.207 µM |  | B (Category B=SBP in SHRs 20-40 mmHg) |  | 
CCCCc1nc(-c2nc(N)c3c(n2)NC(=O)C3(C)c2ccc(Cl)cn2)cn2cc(C)nc12 (stereo not drawn) [Example 168A, 4-amino-2-(8-butyl-2-methylimidazo[1,2-a]pyrazin-6-yl)-5-(5-chloropyridin-2-yl)-5-methyl-5H-pyrrolo[2,3-d]pyrimidin-6(7H)-one] | 97% | 0.15 µM |  | B (Category B=SBP in SHRs 20-40 mmHg) |  | 
Nc1nc(-c2cn3ccnc3c(CCCC(F)(F)F)n2)nc2c1C(c1ccc(Cl)cc1F)(C1CC1)C(=O)N2 (stereo not drawn) [Example 339A, 4-amino-5-(4-chloro-2-fluorophenyl)-5-cyclopropyl-2-(8-(4,4,4-trifluorobutyl)imidazo[1,2-a]pyrazin-6-yl)-5H-pyrrolo[2,3-d]pyrimidin-6(7H)-one] | 325% | 0.122 µM |  |  | B (Category B=SBP in SHRs 20-40 mmHg) | 
CCCCc1nc(-c2nc(N)c3c(n2)NC(=O)C3(C)c2ccc(C(F)(F)F)cn2)cn2cc(C)nc12 (stereo not drawn) [Example 166B, 4-amino-2-(8-butyl-2-methylimidazo[1,2-a]pyrazin-6-yl)-5-methyl-5-(5-(trifluoromethyl)pyridin-2-yl)-5H-pyrrolo[2,3-d]pyrimidin-6(7H)-one] | 94% | 0.12 µM |  | A (Category A=SBP in SHRs<20 mmHg) |  | 
CC1(c2ccc(C(F)(F)F)cn2)C(=O)Nc2nc(-c3cn4ccnc4c(CCCC(F)(F)F)n3)nc(N)c21 (stereo not drawn) [Example 213B, 4-amino-5-methyl-2-(8-(4,4,4-trifluorobutyl)imidazo[1,2-a]pyrazin-6-yl)-5-(5-(trifluoromethyl)pyridin-2-yl)-5H-pyrrolo[2,3-d]pyrimidin-6(7H)-one] | 89% | 0.1 µM |  |  | B (Category B=SBP in SHRs 20-40 mmHg) | 

The next compounds have a lower EC50 (sGC α1/β1 heterodimer) than those just listed; values first:

Emax (sGC α1/β1 heterodimer) | EC50 (sGC α1/β1 heterodimer) | SMILES | Maximum peak decrease of systolic blood pressure (SBP) in SHR, Cat. ([1]; P.O. 3.0 mpk) | Maximum peak decrease of systolic blood pressure (SBP) in SHR, Cat. ([1]; P.O. 1.0 mpk) | Maximum peak decrease of systolic blood pressure (SBP) in SHR, Cat. ([1]; P.O. 0.3 mpk) | Maximum peak decrease of systolic blood pressure (SBP) in SHR, Cat. ([1]; P.O. 2.0 mpk)
132% | 0.056 µM | CC1(c2ccc(Br)cc2)C(=O)Nc2nc(-c3cn4ccnc4c(CCC(F)(F)F)n3)nc(N)c21 (stereo not drawn) [Example 181A, 4-amino-5-(4-bromophenyl)-5-methyl-2-(8-(3,3,3-trifluoropropyl)imidazo[1,2-a]pyrazin-6-yl)-5H-pyrrolo[2,3-d]pyrimidin-6(7H)-one] |  | B (Category B=SBP in SHRs 20-40 mmHg) |  | 
114% | 0.026 µM | Nc1nc(-c2cn3ccnc3c(CCCC(F)(F)F)n2)nc2c1C(c1ncc(Cl)cn1)(C1CC1)C(=O)N2 (stereo not drawn) [Example 373A, 4-amino-5-(5-chloropyrimidin-2-yl)-5-cyclopropyl-2-(8-(4,4,4-trifluorobutyl)imidazo[1,2-a]pyrazin-6-yl)-5H-pyrrolo[2,3-d]pyrimidin-6(7H)-one] |  |  | A (Category A=SBP in SHRs<20 mmHg) | 
137% | 0.045 µM | CCCCc1nc(-c2nc(N)c3c(n2)NC(=O)C3(C)c2ccc(F)cc2)cn2ccnc12 (stereo not drawn) [Example 8A, 4-amino-2-(8-butylimidazo[1,2-a]pyrazin-6-yl)-5-(4-fluorophenyl)-5-methyl-5H-pyrrolo[2,3-d]pyrimidin-6(7H)-one] |  |  | C (Category C=SBP in SHRs>40 mmHg) | 
131% | 0.022 µM | CCCCc1nc(-c2nc(N)c3c(n2)NC(=O)C3(c2ccc(Cl)cn2)C2CC2)cn2ccnc12 (stereo not drawn) [Example 336B, 4-amino-2-(8-butylimidazo[1,2-a]pyrazin-6-yl)-5-(5-chloropyridin-2-yl)-5-cyclopropyl-5H-pyrrolo[2,3-d]pyrimidin-6(7H)-one] |  |  | B (Category B=SBP in SHRs 20-40 mmHg) | 
142% | 0.022 µM | CCCCc1nc(-c2nc(N)c3c(n2)NC(=O)C3(c2ccc(F)c(F)c2)C2CC2)cn2ccnc12 (stereo not drawn) [Example 330A, 4-amino-2-(8-butylimidazo[1,2-a]pyrazin-6-yl)-5-cyclopropyl-5-(3,4-difluorophenyl)-5H-pyrrolo[2,3-d]pyrimidin-6(7H)-one] |  |  | B (Category B=SBP in SHRs 20-40 mmHg) | 
